In PubChem BioAssay (NCI) one finds TGI and GI50 data, which are given here for 13 compounds.

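The compound was tested at five concentrations on cells cultured in 96-well plates, with a 48-hour exposure period. GI50 marks 50% less growth. TGI: concentration producing complete growth inhibition.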 Some results are limits rather than exact numbers.

Among the test systems are A498 renal; BT-549 breast; HS 578T breast; M14 melanoma; RPMI-8226 leukemia; UACC-257 melanoma; MCF7 breast; SR leukemia; DLD-1 colon; M19-MEL melanoma; SNB-78 CNS; XF 498 CNS.
Common to all, as to experiment: NCI anticancer screen, dose series, 48 h

Take `CC1(C(=O)O)CCCC1C(=O)O` (stereo unspecified): the TGI in the assay on A498 renal, in the assay with BT-549 breast, in the assay on HS 578T breast, with M14 melanoma, with RPMI-8226 leukemia and with UACC-257 melanoma was above 100 µM each time.

With `N#Cc1c(-c2ccc(F)cc2)nc(N/N=C/c2c[nH]c3ccccc23)nc1N1CCOCC1`, the GI50 in the assay with A498 renal is 1.33 µM; in the assay on BT-549 breast, 5.43 µM; in the assay on HS 578T breast it was 3.62 µM; with M14 melanoma, 2.1 µM; in the assay with MCF7 breast, 4.56 µM; with RPMI-8226 leukemia it was 3.35 µM. Moreover, the GI50 in the assay on SR leukemia is 0.215 µM; in the assay with UACC-257 melanoma it was 2.2 µM. The TGI with A498 renal was 11.5 µM; in the assay with BT-549 breast it was 30.9 µM; in the assay on HS 578T breast it was 32.5 µM; in the assay on M14 melanoma, 4.87 µM; in the assay with MCF7 breast, 57.4 µM; in the assay with RPMI-8226 leukemia, above 100 µM. Besides, the figures for the TGI with SR leukemia and in the assay on UACC-257 melanoma were 24 µM and 4.87 µM, respectively.

For the compound `CCN1CCC(O)(C(C(=O)O)c2ccccc2)CC1` (stereo unspecified), the TGI in the assay with A498 renal, in the assay on BT-549 breast, in the assay with HS 578T breast, with M14 melanoma, in the assay with MCF7 breast and in the assay on RPMI-8226 leukemia was above 100 µM throughout. Besides, the TGI in the assay on SR leukemia and with UACC-257 melanoma was above 100 µM throughout.

Take `COc1c(Br)cc(CC(N)=O)c(O)c1Br`: the TGI in the assay with A498 renal, in the assay with DLD-1 colon, in the assay on M19-MEL melanoma, in the assay on SNB-78 CNS, with SR leukemia and in the assay on UACC-257 melanoma was above 100 µM throughout. In the assay on XF 498 CNS, the TGI is above 100 µM.

As for `OC1(c2ccc(Cl)cc2)c2ccc3ccccc3c2C2=N[C@H]3CCCC[C@@H]3N21` (stereo partly specified), the TGI in the assay with A498 renal was 52.7 µM; in the assay on HS 578T breast, 3.94 µM; in the assay on M14 melanoma, 23 µM; in the assay on MCF7 breast, above 100 µM; with RPMI-8226 leukemia, 31 µM.

As to `CCC(C(=O)c1ccc(OC)c(OC)c1)N(C(=O)C(F)(F)F)C(C)c1ccccc1` (stereo unspecified), the TGI in the assay with M14 melanoma, with MCF7 breast, in the assay on RPMI-8226 leukemia, with SR leukemia and in the assay on UACC-257 melanoma was above 100 µM throughout.

Turning to `NC(N)=Nc1ncccc1[N+](=O)[O-]`, the TGI in the assay on A498 renal was above 100 µM; in the assay with DLD-1 colon, above 100 µM; with MCF7 breast, above 64.4 µM; with RPMI-8226 leukemia, above 100 µM; in the assay with SNB-78 CNS it was above 100 µM; with UACC-257 melanoma it was above 31.6 µM. The compound further displayed a TGI in the assay with XF 498 CNS above 100 µM.

As for `COc1cc(/C=C\C(=O)O)ccc1OCc1ccccc1`, the TGI with A498 renal, with HS 578T breast, with M14 melanoma, in the assay on MCF7 breast, in the assay on RPMI-8226 leukemia and with SR leukemia was above 100 µM throughout. This compound returned a TGI in the assay on UACC-257 melanoma above 100 µM.

With `O=c1oc2cc(O)ccc2c(O)c1C(c1ccc(C(c2c(O)c3ccc(O)cc3oc2=O)c2c(O)c3ccc(O)cc3oc2=O)cc1)c1c(O)c2ccc(O)cc2oc1=O`, the TGI in the assay on A498 renal, in the assay with BT-549 breast, in the assay on HS 578T breast, in the assay with M14 melanoma, with MCF7 breast and in the assay on SR leukemia was above 100 µM in each case. For the same compound, the TGI in the assay with UACC-257 melanoma is above 100 µM.

In the case of `O=C(N/N=C/c1cc(Br)cc(Br)c1[O-])c1ccccc1O.O=C(N/N=C/c1cc(Br)cc(Br)c1[O-])c1ccccc1O.[Fe+2]`, the TGI in the assay with M14 melanoma came out at 14.5 µM.

For `O=C(CC1=NCCN1)c1ccccc1`, the TGI in the assay with A498 renal was above 75 µM; with DLD-1 colon it was above 750 µM; in the assay with M19-MEL melanoma, above 750 µM; in the assay on MCF7 breast, above 750 µM; in the assay on RPMI-8226 leukemia, above 750 µM; in the assay with SNB-78 CNS, above 750 µM. Also, the TGI in the assay on UACC-257 melanoma and in the assay with XF 498 CNS was above 750 µM in each case.

Take `O=C1C(Cl)N(c2ccccc2[N+](=O)[O-])C1c1c[nH]c2ccccc12` (stereo unspecified): the TGI with M14 melanoma, with M19-MEL melanoma, with RPMI-8226 leukemia, in the assay with SR leukemia, in the assay with UACC-257 melanoma and in the assay on XF 498 CNS was above 100 µM in each case.

On to `O=C(Nc1cccc(O)c1)C(=O)C(C(=O)c1ccccc1F)C1OC(=O)c2ccccc21` (stereo unspecified), for which the TGI with A498 renal was above 100 µM; in the assay with DLD-1 colon it was above 100 µM; with M14 melanoma, above 100 µM; with M19-MEL melanoma, 54.4 µM; in the assay with RPMI-8226 leukemia it was 87.8 µM; in the assay on SNB-78 CNS, 92.9 µM. The results for the TGI in the assay with SR leukemia and in the assay on UACC-257 melanoma were 83.7 µM and above 100 µM, respectively.
